From PMC8226722, “Comparison of Solution Chemical Properties and Biological Activity of Ruthenium Complexes of Selected β-Diketone, 8-Hydroxyquinoline and Pyrithione Ligands” (Pharmaceuticals, 2021) come the findings set out here.

Experiment [1] has as its system Colo 205 chemo-sensitive human colonic adenocarcinoma cell line. In words: MTT cytotoxicity assay, Colo 205. Particulars: for IC50: 72 h, MTT; for S.I. MRC-5/Colo 205: ratio of the indicated IC50 values. It is filed as cell-based. The protocol:
(§1) Human colonic adenocarcinoma cell lines Colo 205 doxorubicin-sensitive (ATCC-CCL-222) and Colo 320/MDR-LRP multidrug resistant expressing ABCB1 (MDR1)-LRP (ATCC-CCL-220.1) were purchased from LGC Promochem (Teddington, UK). […] Cell lines were incubated at 37 °C, in a 5% CO2, 95% air atmosphere. The semi-adherent human colon cancer cells were detached with Trypsin-Versene (EDTA, Sigma, Steinheim, Germany) solution for 5 min at 37 °C. MRC-5 human embryonal lung fibroblast cell lines (ATCC CCL-171) were purchased from LGC Promochem. […] The cell lines were incubated at 37 °C, in a 5% CO2, 95% air atmosphere.
(§2) In the study MRC-5 non-cancerous human embryonic lung fibroblast and human colonic adenocarcinoma cell lines (doxorubicin-sensitive Colo 205 and multidrug resistant Colo 320 colonic adenocarcinoma cells) were used to determine the effect of compounds on cell growth. The effects of increasing concentrations of compounds on cell growth were tested in 96-well flat-bottomed microtiter plates. The stock solutions of the compounds were prepared in DMSO, and in the final samples the DMSO content was always lower than 1%. The compounds were diluted in a volume of 100 μL of medium.
(§3) In case of the colonic adenocarcinoma cells, the two-fold serial dilutions of compounds were prepared in 100 μL of RPMI 1640, horizontally. The semi-adherent colonic adenocarcinoma cells were treated with Trypsin-Versene (EDTA) solution. They were adjusted to a density of 1 × 10^4 cells in 100 μL of RPMI 1640 medium, and were added to each well, with the exception of the medium control wells. The final volume of the wells containing compounds and cells was 200 μL.
(§4) The culture plates were incubated at 37 °C for 72 h; at the end of the incubation period, 20 μL of MTT (Sigma) solution (from a stock solution of 5 mg/mL) were added to each well. After incubation at 37 °C for 4 h, 100 μL of sodium dodecyl sulfate (SDS) (Sigma) solution (10% in 0.01 M HCl) were added to each well and the plates were further incubated at 37 °C overnight. Cell growth was determined by measuring the optical density (OD) at 540/630 nm with Multiscan EX ELISA reader (Thermo Labsystems, Cheshire, WA, USA). […] Curves were fitted by Prism software (GraphPad Software Inc., San Diego, CA, USA) using the sigmoidal dose-response model (comparing variable and fixed slopes). The IC50 values were obtained from at least 3 independent experiments.
For orientation: Tetrazolium assays rely on reduction of a dye to a coloured formazan, in cell work by metabolically active cells.

Experiment [2] relates to Colo 320 multidrug resistant human colonic adenocarcinoma cell line. The experiment in a line: MTT cytotoxicity assay, Colo 320. It counts as cell-based. To be noted: for IC50: 72 h, MTT; for S.I. MRC-5/Colo 320: ratio of the indicated IC50 values. The protocol: as §1, §2, §3, §4
The subject of experiment [3] is MRC-5 normal human embryonal lung fibroblast cells. In words: MTT cytotoxicity assay, MRC-5. It counts as cell-based. Particulars: 72 h. The protocol:
as §1, §2, §3, §4

The subject of experiment [4] is Enterococcus faecalis ATCC 29212. In words: MIC determination (CLSI broth microdilution). It counts as cell-based. To be noted: Gram-positive, ATCC 29212, 18 h. The protocol: (§5) Wild-type Escherichia coli K-12 AG100 strain [argE3 thi-1 rpsL xyl mtl Δ(gal-uvrB) supE44] expressing the AcrAB TolC EP at its basal level and Klebsiella pneumoniae ATCC 49,619 Gram-negative strains were studied in the experiments. Staphylococcus aureus ATCC 43,300 methicillin-resistant (MRSA) strain and Enterococcus faecalis ATCC 29,212 strain were used as Gram-positive strains in the assays. MIC values of the complexes were determined in 96-well plates based on the Clinical and Laboratory Standard Institute guidelines (CLSI guidelines). The stock solutions of the compounds (dissolved in DMSO using 10 mM concentration) were diluted in 100 μL of Mueller Hinton Broth. Then 10^−4 dilution of an overnight bacterial culture in 100 μL of medium was added to each well, with the exception of the medium control wells.
A general note: Broth dilution looks for growth in wells or tubes with falling amounts of substance.

Experiment [5] concerns Escherichia coli K-12 AG100. The experiment in a line: MIC determination (CLSI broth microdilution). It is filed as cell-based. Particulars: Gram-negative, AG100, 18 h. The protocol: as §5
Experiment [6] deals with Klebsiella pneumoniae ATCC 49619. In words: MIC determination (CLSI broth microdilution). It counts as cell-based. Particulars: Gram-negative, ATCC 49619, 18 h. The protocol: as §5
Experiment [7] concerns Staphylococcus aureus ATCC 43300 methicillin-resistant (MRSA). In words: MIC determination (CLSI broth microdilution). It counts as cell-based. To be noted: Gram-positive, MRSA ATCC 43300, 18 h. The protocol:
as §5

The target in experiment [8] is T1, Human serum albumin (HSA) (Homo sapiens, UniProt P02768).
T1 construct: purchased Sigma-Aldrich A8763
T1 sequence (P02768 25-609): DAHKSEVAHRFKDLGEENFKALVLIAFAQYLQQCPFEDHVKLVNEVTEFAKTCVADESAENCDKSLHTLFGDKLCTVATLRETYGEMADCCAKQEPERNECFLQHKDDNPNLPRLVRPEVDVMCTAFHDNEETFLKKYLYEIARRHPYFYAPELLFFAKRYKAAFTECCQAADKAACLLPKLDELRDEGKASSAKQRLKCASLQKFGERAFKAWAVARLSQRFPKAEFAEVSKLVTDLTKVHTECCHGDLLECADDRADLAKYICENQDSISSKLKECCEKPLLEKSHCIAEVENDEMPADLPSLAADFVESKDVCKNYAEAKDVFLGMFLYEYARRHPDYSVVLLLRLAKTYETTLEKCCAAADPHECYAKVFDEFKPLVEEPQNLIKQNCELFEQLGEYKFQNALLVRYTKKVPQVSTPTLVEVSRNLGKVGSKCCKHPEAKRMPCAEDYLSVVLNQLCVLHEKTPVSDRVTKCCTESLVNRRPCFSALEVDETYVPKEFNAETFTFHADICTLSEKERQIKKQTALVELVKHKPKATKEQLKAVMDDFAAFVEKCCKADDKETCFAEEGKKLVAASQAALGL
In words: HSA binding by spectrofluorometry (Trp-214 quenching, site marker displacement). To be noted: pH 7.40 PBS’, 25 °C; for logKWF’ (warfarin displacement): site I marker; for logKDG’ (dansyl glycine displacement): site II marker. The protocol:
Steady-state spectrofluorometric measurements were also performed to assay the binding interactions at the binding pockets of HSA located in the IIA and IIIA subdomains. His residues are found nearby at both binding sites, and covalent binding is possible here. Trp-214 quenching and site marker displacement experiments were conducted as reported in our former works. Warfarin (WF) was applied as site I marker and dansyl glycine (DG) was used for site II. Representative emission spectra for Trp-214 quenching in case of 1 are shown in Figure 8a, and changes in the intensities at the emission maximum are compared for 1–4 in Figure 8b. Based on the spectral changes conditional binding constants were computed for both of the quenching and site marker displacement assays (Table 5).
Complex 2 is hardly bound at site I, while binding of 3 and 1 is considered as a strong interaction here.
Fluorescence studies were performed using a Fluoromax (Horiba Jobin Yvon, Kyoto, Japan) fluorometer in 1 × 1 cm quartz cells. All samples contained 1 μM HSA and various HSA-to-metal complex ratios (up to complex:HSA = 1:40) were used. Site marker displacement experiments were also carried out, and in the samples the HSA-to-site marker (WF or DG) ratio was 1:1 and the concentration of the complex compounds was varied. For the Trp quenching, the WF and DG displacement experiments λEX = 295, 310 and 335 nm was applied and emission spectra were recorded spectra in the wavelength range 310–450, 320–500 and 420–600 nm, respectively. Computer program HypSpec was utilized for calculation of binding constants (K’) for HSA–metal complex adducts similar to the approach described in our former works. Calculations were always based on data obtained from at least two independent measurements.

For orientation: IC50 means the concentration that inhibits the measured activity by half. For the compound `C1N2CN3CN1CP(C2)C3.Cc1ccc(C(C)C)cc1.F[P-](F)(F)(F)(F)F.O=C(C=C([O-])C(F)(F)F)c1ccc(Cl)cc1.[Ru+2]` [complex 8], in experiment [1], the IC50 came to 80.6 ± 1.1 µM and the “S.I. MRC-5/Colo 205” value worked out at 0.22. For the same compound, in experiment [2], inhibition was half-maximal at 47.8 ± 7.3 µM (IC50) and the “S.I. MRC-5/Colo 320” value is 0.37. Further, the midpoint of inhibition in experiment [3], the IC50, lay at 17.6 ± 1.5 µM. The “MIC E. faecalis” value in experiment [4] turned out to be 100 µM. Besides, in experiment [5], the “MIC E. coli” value was >100 µM. The “MIC K. pneumoniae” value in experiment [6] was >100 µM. Moreover, in experiment [7], the “MIC S. aureus” value turned out to be 50 µM.

For the compound `Cc1ccc(C(C)C)cc1.[Cl-].[O-]n1ccccc1=S.[Ru+2]` [complex 1], in experiment [1], the IC50 is 14 ± 0.62 µM and the “S.I. MRC-5/Colo 205” value is recorded as 0.15. In experiment [2], the IC50 was 3.3 ± 1.3 µM and the “S.I. MRC-5/Colo 320” value was 0.66. In experiment [3], this compound gave a half-inhibitory concentration (IC50) of 2.17 ± 0.22 µM. In addition, the “MIC E. faecalis” value in experiment [4] was 100 µM. The “MIC E. coli” value in experiment [5] was >100 µM. Besides, in experiment [6], the “MIC K. pneumoniae” value is >100 µM. Also, the “MIC S. aureus” value in experiment [7] is 50 µM. For the same compound, in experiment [8], the “logKWF’ (warfarin displacement)” value stood at 6.16 ± 0.03 and the “logKDG’ (dansyl glycine displacement)” value is given as 5.80 ± 0.03. Further, the “logKQ’ (Trp-214 quenching)” value in experiment [8] (titration, site I) was 5.81 ± 0.03.

`C1N2CN3CN1CP(C2)C3.Cc1ccc(C(C)C)cc1.F[P-](F)(F)(F)(F)F.[O-]n1ccc2ccccc2c1=S.[Ru+2]` [complex 4]: in experiment [1], the IC50 is > 100 µM and the “S.I. MRC-5/Colo 205” value was <0.81. Besides, in experiment [2], the IC50 is > 100 µM and the “S.I. MRC-5/Colo 320” value is given as <0.81. In addition, in experiment [4], the “MIC E. faecalis” value was >100 µM. Besides, in experiment [5], the “MIC E. coli” value is >100 µM. For the same compound, the “MIC K. pneumoniae” value in experiment [6] was >100 µM. The “MIC S. aureus” value in experiment [7] is >100 µM. In addition, the “logKQ’ (Trp-214 quenching)” value in experiment [8] (batch, 48 h equilibration) was 5.39 ± 0.03. Moreover, the “logKQ’ (Trp-214 quenching)” value in experiment [8] (titration, site I) stood at 4.46 ± 0.03.

As to `C1N2CN3CN1CP(C2)C3.Cc1ccc(C(C)C)cc1.F[P-](F)(F)(F)(F)F.[O-]n1ccccc1=S.[Ru+2]` [complex 2], the IC50 in experiment [1], in experiment [2] and in experiment [3] was > 100 µM throughout. Also, in experiment [4], the “MIC E. faecalis” value is >100 µM. Moreover, the “MIC E. coli” value in experiment [5] is >100 µM. Moreover, the “MIC K. pneumoniae” value in experiment [6] was >100 µM. Moreover, the “MIC S. aureus” value in experiment [7] is >100 µM. Besides, the “logKQ’ (Trp-214 quenching)” value in experiment [8] (titration, site I) is given as <4.

As for `Cc1ccc(C(C)C)cc1.[Cl-].[O-]n1ccc2ccccc2c1=S.[Ru+2]` [complex 3], in experiment [1], inhibition was half-maximal at 17.3 ± 3.1 µM (IC50) and the “S.I. MRC-5/Colo 205” value stood at 0.44. Further, in experiment [2], the IC50 worked out at 10.7 ± 1.5 µM and the “S.I. MRC-5/Colo 320” value was 0.71. This compound returned a concentration for half-maximal inhibition (IC50) in experiment [3] of 7.6 ± 1.6 µM. Further, in experiment [4], the “MIC E. faecalis” value turned out to be 12.5 µM. The “MIC E. coli” value in experiment [5] was >100 µM. The “MIC K. pneumoniae” value in experiment [6] was >100 µM. Further, in experiment [7], the “MIC S. aureus” value worked out at 12.5 µM. In experiment [8], the “logKWF’ (warfarin displacement)” value is recorded as 5.98 ± 0.03 and the “logKDG’ (dansyl glycine displacement)” value was 5.61 ± 0.03. Further, in experiment [8] (titration, site I), the “logKQ’ (Trp-214 quenching)” value came out at 6.18 ± 0.03.

Regarding `Cc1ccc(C(C)C)cc1.O=C(C=C([O-])C(F)(F)F)c1ccc(Cl)cc1.[Cl-].[Ru+2]` [complex 7], in experiment [1], the midpoint of inhibition, the IC50, lay at 52.4 ± 2.7 µM and the “S.I. MRC-5/Colo 205” value is on record as 0.51. In experiment [2], the half-inhibitory concentration (IC50) came out at 29.1 ± 2 µM and the “S.I. MRC-5/Colo 320” value was determined as 0.91. Further, the IC50 in experiment [3] came to 26.5 ± 3.2 µM. Further, in experiment [4], the “MIC E. faecalis” value was 50 µM. Further, in experiment [5], the “MIC E. coli” value was >100 µM. Also, the “MIC K. pneumoniae” value in experiment [6] is >100 µM. Also, in experiment [7], the “MIC S. aureus” value is 50 µM.
